Test results from the supplement of paper PMC10307832.

What was measured:
Assay in all cases: relative viability (nuclei count vs DMSO), 5 days (fraction); higher = more cells survive
[1] = compound: C1=CC2=C(C=C(C(=C2N=C1)O)N=NC3=CC4=C(C=C3)C=C(C=C4)S(=O)(=O)O)S(=O)(=O)O + CS(=O)(=O)N1CCN(Cc2cc3nc(-c4cccc5[nH]ncc45)nc(N4CCOCC4)c3s2)CC1 [Pictilisib] (partner 1 µM)
Summary of the method: (§1)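 The day after seeding in 1536-well plates, lung cancer cell lines were treated by pin tool with a single drug, or with a fixed anchor-drug dose together with five library-drug doses (not always all listed) in √10 steps. After 5 days, a combined fix-and-stain solution (final 0.05% Triton X-100, 1% formaldehyde, 1 ug/ml Hoechst) was added. Nuclei counted on 4× images gave relative viability as treated counts over vehicle counts, reported as the median of duplicate plates.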

[2] = compound: C1=CC2=C(C=C(C(=C2N=C1)O)N=NC3=CC4=C(C=C3)C=C(C=C4)S(=O)(=O)O)S(=O)(=O)O + CC(=O)Nc1cccc(-n2c(=O)n(C3CC3)c(=O)c3c(Nc4ccc(I)cc4F)n(C)c(=O)c(C)c32)c1 [Trametinib] (partner 0.02 µM)
Summary of the method: as §1

[3] = compound: O=C(NC1CCNCC1)c1n[nH]cc1NC(=O)c1c(Cl)cccc1Cl [AT-7519] + N=C(N)NC(=N)NCCc1ccccc1 [Phenformin] (partner 250 µM)
Summary of the method: as §1

[4] = compound: C1=CC2=C(C=C(C(=C2N=C1)O)N=NC3=CC4=C(C=C3)C=C(C=C4)S(=O)(=O)O)S(=O)(=O)O + NC(=O)Nc1cc(-c2cccc(F)c2)sc1C(=O)N[C@H]1CCCNC1 [AZD7762] (partner 0.2 µM)
Summary of the method: as §1

Cell Line	relative viability ([1]; first compound 0.08 µM)	relative viability ([1]; first compound 0.253 µM)	relative viability ([1]; first compound 0.8 µM)	relative viability ([1]; first compound 2.53 µM)	relative viability ([1]; first compound 8 µM)	relative viability ([2]; first compound 0.08 µM)	relative viability ([2]; first compound 0.253 µM)	relative viability ([2]; first compound 0.8 µM)	relative viability ([2]; first compound 2.53 µM)	relative viability ([2]; first compound 8 µM)	relative viability ([3]; first compound 0.01 µM)	relative viability ([3]; first compound 0.03162 µM)	relative viability ([3]; first compound 0.3162 µM)	relative viability ([3]; first compound 1 µM)	relative viability ([4]; first compound 0.08 µM)	relative viability ([4]; first compound 0.253 µM)	relative viability ([4]; first compound 0.8 µM)	relative viability ([4]; first compound 2.53 µM)	relative viability ([4]; first compound 8 µM)
NCI-H1975	0.327	0.299	0.268	0.305	0.286	0.382	0.332	0.381	0.292	0.585	0.382	0.408	0.274	0.155	0.715	0.69	0.671	0.748	0.702
CAL-12T	0.351	0.409	0.366	0.36	0.323	0.369	0.332	0.318	0.332	0.28	0.531	0.579	0.272	0.188	0.621	0.6	0.61	0.635	0.601
NCI-H1623	–	–	–	–	–	–	–	–	–	–	0.583	0.567	0.668	0.557	–	–	–	–	–
HCC-44	0.649	0.636	0.548	0.649	0.766	1.04	1.01	1.09	1.04	0.797	0.15	0.199	0.154	0.205	1.01	1.03	0.997	1.05	1.04
EKVX	0.419	0.45	0.438	0.413	0.399	0.346	0.305	0.37	0.341	0.332	0.246	0.242	0.259	0.23	0.836	0.78	0.61	0.702	0.702
NCI-H1651	0.777	0.517	0.489	0.593	0.563	0.799	0.839	0.832	0.848	0.744	0.298	0.344	0.36	0.325	0.501	0.49	0.474	0.489	0.437
NCI-H1944	0.333	0.348	0.327	0.345	0.332	0.415	0.385	0.416	0.474	0.366	0.234	0.207	0.197	0.182	0.643	0.647	0.746	0.519	0.464
NCI-H1703	0.264	0.232	0.265	0.246	0.197	–	–	–	–	–	–	–	–	–	0.147	0.163	0.13	–	0.16
Calu-6	0.903	1.01	0.955	0.974	0.838	–	–	–	–	–	–	–	–	–	–	–	–	–	–
EBC-1	0.511	0.333	0.439	0.391	0.499	–	–	–	–	–	–	–	–	–	–	–	–	–	–
SW 1573	0.449	0.431	0.475	0.447	0.523	0.514	0.477	0.608	0.564	0.0865	0.421	0.349	0.236	0.0778	–	–	–	–	–
A-427	0.665	0.731	0.629	0.672	0.709	0.721	0.719	0.718	0.781	0.732	0.233	0.315	0.238	0.222	0.823	0.816	0.767	0.822	0.743
NCI-H2347	0.651	0.585	0.541	0.657	0.683	0.316	0.303	0.279	0.262	0.316	0.281	0.388	0.582	0.185	0.838	0.734	0.846	1.01	0.705
NCI-H1355	0.423	0.433	0.401	0.473	0.441	0.41	0.411	0.431	0.416	0.476	0.455	0.461	0.371	0.458	0.801	0.726	0.723	0.824	0.64
NCI-H358	0.37	0.35	0.323	0.356	0.363	0.158	0.128	0.142	0.136	0.144	0.342	0.313	0.205	0.087	0.375	0.667	0.426	0.544	0.518
PC-3 [JPC-3]	0.79	0.771	0.663	0.713	0.694	0.78	0.725	0.737	0.735	0.644	0.471	0.474	0.45	0.484	0.899	0.808	0.817	0.778	0.71
NCI-H2228	0.435	0.427	0.289	0.567	0.291	0.81	0.453	0.603	0.443	0.703	0.298	0.305	0.193	0.165	–	–	–	–	–
HOP-62	0.842	0.707	0.651	0.723	0.691	0.428	0.392	0.452	0.37	0.359	0.706	0.655	0.512	0.679	0.715	0.34	0.607	0.731	0.57
HARA	0.356	0.471	0.384	0.38	0.707	0.878	0.442	0.869	0.82	0.532	0.415	0.52	0.503	0.358	0.384	0.261	0.267	0.362	0.469

Cell Line	relative viability ([1]; first compound 0.08 µM)	relative viability ([1]; first compound 0.253 µM)	relative viability ([1]; first compound 0.8 µM)	relative viability ([1]; first compound 2.53 µM)	relative viability ([1]; first compound 8 µM)	relative viability ([2]; first compound 0.08 µM)	relative viability ([2]; first compound 0.253 µM)	relative viability ([2]; first compound 0.8 µM)	relative viability ([2]; first compound 2.53 µM)	relative viability ([2]; first compound 8 µM)	relative viability ([3]; first compound 0.01 µM)	relative viability ([3]; first compound 0.03162 µM)	relative viability ([3]; first compound 0.3162 µM)	relative viability ([3]; first compound 1 µM)	relative viability ([4]; first compound 0.08 µM)	relative viability ([4]; first compound 0.253 µM)	relative viability ([4]; first compound 0.8 µM)	relative viability ([4]; first compound 2.53 µM)	relative viability ([4]; first compound 8 µM)
NCI-H838	0.42	0.42	0.437	0.417	0.518	0.566	0.543	0.453	0.508	0.653	0.534	0.552	0.247	0.0953	1.01	0.882	0.89	0.965	0.882
IA-LM	0.302	0.312	0.283	0.347	0.322	–	–	–	–	–	–	–	–	–	–	–	–	–	–
COR-L23	0.982	0.81	0.692	0.753	0.857	0.669	0.604	0.609	0.556	0.611	0.459	0.412	0.287	0.144	–	–	–	–	–
NCI-H2023	0.218	0.261	0.257	0.251	0.298	0.527	0.58	0.558	0.589	0.637	0.389	0.435	0.321	0.0704	–	–	–	–	–
COR-L 105	0.397	0.362	0.379	0.401	0.4	0.514	0.437	0.469	0.48	0.476	0.451	0.489	0.301	0.286	–	–	–	–	–
NCI-H520	0.298	0.282	0.332	0.26	0.269	0.784	0.6	0.768	0.625	0.807	0.66	0.669	0.422	0.257	–	–	–	–	–
SK-LU-1	0.615	0.55	0.57	0.61	0.621	0.681	0.509	0.517	0.499	0.672	0.499	0.444	0.322	0.231	–	–	–	–	–
NCI-H2342	–	–	–	–	–	0.82	0.884	0.943	0.808	0.764	0.595	0.605	0.509	0.512	0.603	0.541	0.463	0.462	0.582
NCI-H1299	0.755	0.823	0.821	0.87	0.623	–	–	–	–	–	–	–	–	–	–	–	–	–	–
NCI-H1650	0.645	0.587	0.529	0.648	0.596	0.672	0.547	0.512	0.682	0.433	0.466	0.427	0.292	0.15	–	–	–	–	–
NCI-H2009	0.789	0.82	0.757	0.747	0.761	0.316	0.3	0.294	0.288	0.24	0.521	0.451	0.472	0.276	–	–	–	–	–
SW 900	–	–	–	–	–	0.873	0.764	0.699	0.968	0.821	0.697	0.645	0.604	0.196	0.597	0.644	0.598	0.588	0.666
SK-MES-1	0.444	0.354	0.376	0.328	0.377	0.514	0.54	0.587	0.585	0.548	0.655	0.651	0.63	0.331	–	–	–	–	–
NCI-H1648	–	–	–	–	–	–	0.57	–	–	0.59	–	–	–	–	–	0.712	–	–	0.717
NCI-H522	–	–	–	–	–	0.494	0.676	0.748	0.791	0.894	–	0.681	0.662	0.675	0.783	0.932	0.971	0.787	0.714
A549	0.522	0.449	0.545	0.509	0.322	–	–	–	–	–	0.131	0.153	0.158	0.0741	–	–	–	–	–
NCI-H661	0.372	0.345	0.359	0.517	0.353	0.627	0.532	0.568	0.625	0.613	0.277	0.27	0.249	0.189	–	–	–	–	–
NCI-H1563	0.623	0.638	0.653	0.626	0.701	–	–	–	–	–	0.66	0.625	0.645	0.651	–	–	–	–	–
ABC-1	0.629	0.63	0.579	0.67	0.643	–	–	–	–	–	0.245	0.242	0.234	0.164	0.741	–	0.831	0.691	0.667
